Source: patent US4008223A, “6-Aza-3H-1,4-benzodiazepines” (Deutsche Gold- und Silber-Scheideanstalt vormals Roessler, priority 1971, dated 1977)

Tests used:
[1] = system: mice; experiment: Cardiazol shock (anticonvulsive / anxiolytic effect); assay type: in vivo; conditions: Mus musculus, 1 h, oral, one hour before 150 mg/kg s.c. Cardiazol, 50% of animals with marked anticonvulsive effect
Source text: The compounds of the present invention have a pronounced anxiolytic activity, i.e., they relieve or reduce anxiety. Such activity naturally cannot be measured directly in animals. […] A method for testing whether a compound has anticonvulsive properties and also therewith is anxiolytically active is the Cardiazol-Shock Method.
In order to compare the therapeutic value of the compounds of the present invention with the most closely related compounds in Littell U.S. Pat. No. 3,314,941 and Reeder U.S. Pat. No. 3,371,085 tests were conducted comparing the properties of the compounds of the present application and the Littell and Reeder patents in regard to anxiolytic effect (tested by Cardiazol-Shock).
The Cardiazol shock procedure was carried out according to the method of F.M. Berger et al in J. Pharmacol. Exper. Therap. Vol. 116, pages 337-342 (1956). With mice the subcutaneous injection of 150 mg/kg of Cardiazol first results in short lasting spasms, then long lasting and strong spasms and finally results in the death of all of the animals within 10 to 15 minutes. By the oral administration of the anticonvulsive acting test materials at various dosages one hour prior to the administration of the Cardiazol, the 100% lethal effect of the Cardiazol is reduced depending on the dosage. From the percentage of surviving animals in the individual test groups there was plotted graphically the dosage-effect line and from this the ED50 value was ascertained.

[2] = system: mice; experiment: rotating rod test (ataxic effect); assay type: in vivo; conditions: quotient of ED50 ataxia / ED50 Cardiazol shock; should be as large as possible
Source text: (§1) Furthermore, there is given in this table the ataxic activity. The ratio of ataxic activity to the anxiolytic activity is of the greatest significance in using a material as an anxiolytic agent. This quotient should be as large as possible since an ataxic activity is undesirable. Ataxic activity means that the coordination of the muscular movements is disturbed -- ataxic disturbance of the muscular coordination. This means at the dosage at which a marked anxiolytic activity is present there should not be found a noteworthy ataxice. The toxicity, in case the data exists above the ataxic activity, is no longer important since the amount which is toxic is always considerably higher than the amount at which 50% (ED50) of the animals have an ataxic effect. The ataxic effect was measured on mice on the pattern of the rotating rod.
(§2) In the rotating rod test the animals (mice) were firest placed on a rotating rod 15 minutes after the application of the test material and then were placed on the rotating rod every 15 minutes and the animals which fell down within 2 minutes measured positive. From the number of animals which fell down expressed in per cent there were drawn time-effect curves and the areas defined by it entered as percent effect in a probability network, the dosage-effect-line prepared and the ED50 read off. The ED50 mg/kg body weight of the mouse again specifies the dosage at which 50% of all the animals show a typical ataxic effect.

[3] = rotating rod test (ataxic effect); assay type: in vivo, mice; conditions: mouse, rotating rod test; mice; oral; 50% of animals show a typical ataxic effect; read-out: ED50, ataxic effect (rotating rod)
Source text: as §1, §2

[4] = literature; cited from earlier work
[5] = on introduction of p-chlorine and alpha-methyl; literature; cited from earlier work
[6] = First Int. Pharmacological Meeting, Vol. 7, pages 311 et seq.; cited from earlier work

Row | SMILES | ED50 [1] [mg/kg] | ratio of ataxic activity to the anxiolytic activity [2] | TD50 [3] [mg/kg] | antihistamine activity [4] | anticholinergic activity [5] | stimulating activity [6]
1 | O=C1Nc2ccc(Cl)nc2C(c2ccccc2Cl)=NC1O (stereo not shown) [Example 13, 3-Hydroxy-5-o-chlorophenyl-6-aza-7-chloro-1,2-dihydro-3H-1,4-benzodiazepinone-(2)] | 2.4 | 15.0 | 36 | – | – | –
2 | CN1C(=O)CN=C(c2ccccc2F)c2nc(Cl)ccc21 [Example 9, 1-Methyl-5-(o-fluorophenyl)-6-aza-7-chloro-1,2-dihydro-3H-1,4-benzodiazepinone-(2)] | 1.58 | 6.1 | 9.7 | – | – | –
3 | CC(=O)OC1N=C(c2ccccc2Cl)c2nc(Cl)ccc2N(C(C)=O)C1=O (stereo not shown) [Example 15, 1-Acetyl-3-acetoxy-5-(o-chlorophenyl)-6-aza-7-chloro-1,2-dihydro-3H-1,4-benzodiazepinone-(2)] | 15 | 6.7 | 100 | – | – | –
4 | O=C1CN=C(c2ccccc2F)c2nc(Cl)ccc2N1 [Example 10, 5-(-Fluorophenyl)-6-aza-7-chloro-1,2-dihydro-3H-1,4-benzodiazepinone-(2)] | 1.63 | 10.4 | 17 | – | – | –
5 | O=C1CN=C(c2ccccc2)c2nc(Cl)ccc2N1 [Example 1, 5-Phenyl-6-aza-7-chloro-1,2-dihydro-3H-1,4-benzodiazepinone-(2)] | 6.3 | 11.4 | 72 | – | – | –
6 | CC1N=C(c2ccccc2)c2nc(Cl)ccc2NC1=O (racemic) [Example 4, 3-Methyl-5-phenyl-6-aza-7-chloro-1,2-dihydro-3H-1,4-benzodiazepinone-(2)] | 18 | 4.3 | 78 | – | – | –
7 | C=CCN1C(=O)CN=C(c2ccccc2)c2nc(Cl)ccc21 [Example 18, 1-Allyl-5-phenyl-6-aza-7-chloro-1,2-dihydro-3H-1,4-benzodiazepinone-(2)] | 11 | 8.2 | 90 | – | – | –
8 | CN1C(=O)CN=C(c2ccccc2Cl)c2nc(Cl)ccc21 [Example 21, 1-Methyl-5-(o-chlorophenyl)-6-aza-7-chloro-1,2-dihydro-3H-1,4-benzodiazepinone-(2)] | 0.98 | 10.2 | 10 | – | – | –
9 | CN1C(=O)CN=C(c2ccccc2)c2nc(Cl)ccc21 [Example 17, 1-Methyl-5-phenyl-6-aza-7-chloro-1,2-dihydro-3H-1,4-benzodiazepinone-(2)] | 4.2 | 6.2 | 26 | – | – | –
10 | O=C1CN=C(c2ccccc2Cl)c2nc(Cl)ccc2N1 [Example 6, 5-(o-Chlorophenyl)-6-aza-7-chloro-1,2-dihydro-3H-1,4-benzodiazepinone-(2)] | 2.72 | 16.5 | 45 | – | – | –
11 | CN(C)CCOC(C)(c1ccccc1)c1ccc(Cl)cc1 (stereo not shown) [chlorphenoxamine] | – | – | – | reduced | strengthening | –
12 | CN1C(=S)CN=C(c2ccccc2Cl)c2nc(Cl)ccc21 [Example 24, 1-Methyl-5-(o-chlorophenyl)-6-aza-7-chloro-1,2-dihydro-3H-1,4-benzodiazepinthione-(2)] | 3.3 | 12.5 | 39 | – | – | –
13 | CC(NN)c1ccccc1 (stereo not drawn) [alpha phenyl-ethyl hydrazine] | – | – | – | – | – | strong stimulating activity
14 | O=C(O)CCC(=O)OC1N=C(c2ccccc2Cl)c2nc(Cl)ccc2NC1=O (stereo not shown) [Example 12] | 7.4 | 13.5 | 100 | – | – | –
15 | O=C1CN=C(c2ccccc2)c2nc(Cl)ccc2N1CC1CC1 [Example 19] | 9.75 | 7.7 | 75 | – | – | –
16 | CN(C)CCCN1c2ccccc2Sc2ccc(Cl)cc21 [Chlorpromazine] | – | – | – | practically no antihistamine activity | – | –
